Experimental data reported in patent US20110218170A1, “USE OF 2'-DEOXY-4'-THIOCYTIDINE AND ITS ANALOGUES AS DNA HYPOMETHYLATING ANTICANCER AGENTS” (Southern Research Institute, priority 2010, published 2011).
Where two headings read alike, the source gives them in different places.

Legend:
[1] = tested on: DNMT1; assay: DNMT1 protein levels by western blot in drug-treated KG1a cells; assay type: cell-based, human
Experimental: Cells were incubated with drugs for the indicated times and analyzed by western blot. (*ns indicates a non-specific band used as a loading control).

[2] = tested on: CEM leukemia cells; assay: Incorporation of [5-3H]-labelled compound into DNA of CEM leukemia cells (FIG. 2); assay type: cell-based, human; settings: 100 nM of [5-3H]-labelled compound
Experimental: (§1) In particular, FIG. 2 refers to an experiment where CEM leukemia cells were incubated with 100 nM of [5-^3H]T-dCyd, [5-^3H]dCyd, [5-^3H]araC or [5-^3H]T-araC and the incorporation of compound into the DNA was determined. […] In contrast much less araC (or T-araC) was incorporated into the DNA. Although araCTP (or T araCTP) are also good substrates for DNA polymerases, they are known to inhibit subsequent DNA chain elongation and thereby inhibit DNA replication. […] The concentration of T-dCyd or araC required to inhibit CEM cell growth by 50% after 72 hours of incubation was 2.2 or 0.006 μM, respectively.

[3] = Stability in phosphate buffered saline by reverse phase HPLC (FIG. 4); assay type: physicochemical; settings: PBS pH 7.4, 100 μM; for half-life at 100 μM: phosphate buffered saline, samples at 2, 20 and 90 hours
Experimental: One of the primary problems of the currently clinically used DNA hypomethylators 5-aza-dCyd and 5-azacytidine is the rapid degradation of these compounds by ring opening of the 5-azacytosine ring in aqueous solutions. Whether a 4′-thio modification would enhance the stability of 5-azacytosine relative to the 4′-oxonucleoside was tested (FIG. 4). In side-by-side experiments, the compounds were dissolved in PBS (phosphate buffered solution, pH 7.4) at a concentration of 100 μM. A sample was removed from each solution 2, 20, and 90 hours after addition of the drug and the concentrations of 5-aza-T-dCyd or 5-aza-dCyd were determined by reverse phase HPLC.

[4] = tested on: KG1a human myeloid leukemia cells; assay: Incorporation into DNA in KG1a human myeloid leukemia cells (FIG. 3); assay type: cell-based; settings: 300 nM, 4 h of incubation
[5] = tested on: CEM cell; assay: Inhibition of CEM cell growth; assay type: cell-based, human; settings: after 72 hours of incubation, read-out: concentration required to inhibit CEM cell growth by 50%
Experimental: as §1

[6] = tested on: tumors; assay: Anti-tumor activity of 5-aza-T-dCyd in in vivo tumor model (FIG. 6); settings: mice, q1dx9; tumor size decreased several days after end of dosing
Experimental: (§2) Preliminary in vivo evaluation of the anti-tumor activity of T-dCyd and 5-aza-T-dCyd in mice was also conducted (FIG. 5 and FIG. 6). T-dCyd was tested against human lung NCI-H23 (FIG. 5), and also in DLD-1 colon tumor xenografts (not shown). […] However the 9-day treatment schedule is a classical schedule for a cytotoxic anticancer agent. T-dCyd as a potential DNA hypomethylating agent has not been evaluated in tumor models.
Again, the schedule in this experiment (q1dx9) was also not designed based on the supposed mechanism of action of this agent, but was designed based on a classical cytotoxic nucleoside analog, as in the case of T-dCyd. […] This type of compound might best be used in combination with other chemotherapy as a maintenance therapy. Thus, in the clinic one could envision treatment first with cytotoxic agents to kill a large percentage of rapidly dividing tumor cells, followed by treatment with non-toxic doses of hypomethylating agents for longer time periods. In a similar vein one could envisage treatment with non-toxic DNA hypomethylating agents in chemoprevention settings.

[7] = tested on: CEM cells; assay: Metabolism of dCyd or T-dCyd in CEM cells; assay type: in vitro ADME, human; settings: 100 nM, 1 hour
Experimental: The metabolites that were produced in CEM cells treated with either [5-^3H]dCyd or [5-^3H]T-dCyd were also determined (Table 1). Cells were treated with 100 nM of each compound for 1 hour and the medium and cells were extracted to determine the major metabolites that were formed. The medium was analyzed by reverse phase HPLC to measure the parent compound, deaminated product, or [^3H]-water. The acid-soluble extract was analyzed by strong anion exchange HPLC to measure the intracellular concentration of nucleotide metabolites. The radioactivity in the acid-insoluble fraction represents the amount of compound that was incorporated into DNA. […] (Note: Because dCyd was labeled at the 5 position, the [^3H] was removed from the molecule by thymidylate synthase in the process of adding a methyl group to this position. Accordingly, there will be no radioactivity in thymidine nucleotides generated from [5-^3H]dCyd).

[8] = tested on: human lung NCI-H23; assay: Anti-tumor activity against human lung NCI-H23 tumor xenografts in mice (FIG. 5); assay type: in vivo
Experimental: as §2

[9] = Maximum tolerated dose (MTD) in mice; settings: mouse, in vivo
Experimental: as §2

[10] = similar experiments, FIG. 1B or not shown
[11] = 1.3 mg/kg (MTD0.65), 9 day treatment, NCI-H23 tumors in mice

Row | SMILES | half-life at 100 μM [3] | effect on DNMT1 protein level [1, 10] | incorporation of compound into the DNA [2] | incorporation into DNA [4] | [3H] in DNA [7] | [3H] in parent compound [7] | further results
1 | Nc1ccn([C@@H]2S[C@H](CO)[C@@H](O)[C@@H]2O)c(=O)n1 [T-araC, 4′-thio-arabinofuranosylcytosine, reference compound] | – | did not deplete DNMT1 | much less | – | – | – | –
2 | Nc1ccn([C@@H]2O[C@H](CO)[C@@H](O)[C@@H]2O)c(=O)n1 [araC, arabinofuranosylcytosine, reference compound] | – | did not deplete DNMT1 | much less | – | – | – | IC50 [5]: 0.006 µM
3 | Nc1ccn([C@H]2C[C@H](O)[C@@H](CO)O2)c(=O)n1 [dCyd, 2′-deoxycytidine, reference compound] | – | – | – | – | 3% of total | 38% of total | –
4 | Nc1ccn([C@H]2C[C@H](O)[C@@H](CO)S2)c(=O)n1 [T-dCyd, 4′-thio-2′-deoxycytidine] | – | – | more T-dCyd was incorporated into the DNA than dCyd | rapidly incorporated to very high levels | 8% of total | 90% of total | effect on DNMT1 protein level ([1]; 72 h at the 3 μM dose, FIG. 1D): complete depletion of DNMT1; effect on DNMT1 protein level ([1]; 72 hour exposure at low non-toxic doses, FIG. 1A): capable of reducing DNMT1; effect on DNMT1 protein level ([1]; 96 h at the 1 and 3 μM doses, FIG. 1D): complete depletion of DNMT1; in vivo anti-tumor activity ([8]; 0.9 mg/kg (MTD0.45) and 0.6 mg/kg (MTD0.3), 9 day treatment schedule): some encouraging in vivo activity; complete cures [8, 11]: 2/6; tumor growth inhibition [8, 11]: substantial growth inhibition; MTD at 9 day [9]: 2 mg/kg; IC50 ([5]; Homo sapiens, CCRF-CEM): 2.2 µM; radioactivity recovered as water in the medium, T-dUrd in the medium, or T-dUMP in the acid-soluble pool [7]: none

Further lines, with some results ahead:

Row | half-life at 100 μM [3] | SMILES | effect on DNMT1 protein level [1, 10] | incorporation of compound into the DNA [2] | incorporation into DNA [4] | [3H] in DNA [7] | [3H] in parent compound [7] | further results
5 | 67 h | Nc1ncn([C@H]2C[C@H](O)[C@@H](CO)O2)c(=O)n1 [5-azadCyd, 5-aza-2′-deoxycytidine, reference compound] | depleting DNMT1 | – | only a moderate amount | – | – | –
6 | 293 h | Nc1ncn([C@H]2C[C@H](O)[C@@H](CO)S2)c(=O)n1 [5-aza-T-dCyd, 5-aza-4′-thio-2′-deoxycytidine] | – | – | – | – | – | effect on DNMT1 protein level ([1]; doses as low as 0.1 μM, exposed for 72 or 96 h, FIG. 1E): complete depletion of DNMT1; effect on DNMT1 protein level ([1]; similar exposures for as little as 48 h, FIG. 1C): completely depleted DNMT1; tumor growth inhibition [6]: substantially inhibited the growth of the tumors; stability in PBS relative to 5-aza-dCyd [3]: 5 fold
